Key:
[1] = molecular target: T1, Progesterone receptor (Homo sapiens, UniProt P06401)
T1 sequence (P06401 whole entry): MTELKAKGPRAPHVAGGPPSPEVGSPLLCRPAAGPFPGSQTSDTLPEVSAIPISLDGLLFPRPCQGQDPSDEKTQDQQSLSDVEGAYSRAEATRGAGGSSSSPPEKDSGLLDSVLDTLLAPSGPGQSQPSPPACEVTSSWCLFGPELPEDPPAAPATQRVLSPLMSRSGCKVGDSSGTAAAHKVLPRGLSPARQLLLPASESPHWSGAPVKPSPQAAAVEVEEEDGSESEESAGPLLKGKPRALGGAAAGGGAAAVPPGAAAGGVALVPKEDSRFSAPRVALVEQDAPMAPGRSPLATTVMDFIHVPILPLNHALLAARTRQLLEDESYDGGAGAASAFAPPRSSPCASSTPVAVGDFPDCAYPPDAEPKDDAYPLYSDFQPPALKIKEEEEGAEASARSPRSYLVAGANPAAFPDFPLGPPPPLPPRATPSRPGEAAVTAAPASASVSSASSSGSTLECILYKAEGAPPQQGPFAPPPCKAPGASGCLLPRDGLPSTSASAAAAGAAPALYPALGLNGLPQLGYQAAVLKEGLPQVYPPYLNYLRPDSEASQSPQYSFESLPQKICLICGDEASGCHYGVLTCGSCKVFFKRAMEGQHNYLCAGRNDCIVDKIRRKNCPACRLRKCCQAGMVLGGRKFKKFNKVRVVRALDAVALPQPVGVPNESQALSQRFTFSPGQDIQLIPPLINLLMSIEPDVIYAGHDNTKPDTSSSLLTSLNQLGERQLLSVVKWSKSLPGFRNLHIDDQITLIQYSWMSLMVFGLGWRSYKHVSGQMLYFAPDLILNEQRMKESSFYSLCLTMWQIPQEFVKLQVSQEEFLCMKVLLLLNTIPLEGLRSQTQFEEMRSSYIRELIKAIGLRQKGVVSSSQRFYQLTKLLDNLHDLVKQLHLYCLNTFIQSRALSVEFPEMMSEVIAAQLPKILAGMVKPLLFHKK

[2] = molecular target: D(1A) dopamine receptor (Homo sapiens, UniProt P21728)
[3] = molecular target: Beta-1 adrenergic receptor (Homo sapiens, UniProt P08588); assay type: functional
[4] = molecular target: Sodium-dependent dopamine transporter (Homo sapiens, UniProt Q01959)
[5] = molecular target: Melanocortin receptor 3 (Homo sapiens, UniProt P41968)
[6] = molecular target: Vasopressin V1a receptor (Homo sapiens, UniProt P37288)
[7] = molecular target: T2, Cholecystokinin receptor type A (Homo sapiens, UniProt P32238)
T2 sequence (P32238 whole entry): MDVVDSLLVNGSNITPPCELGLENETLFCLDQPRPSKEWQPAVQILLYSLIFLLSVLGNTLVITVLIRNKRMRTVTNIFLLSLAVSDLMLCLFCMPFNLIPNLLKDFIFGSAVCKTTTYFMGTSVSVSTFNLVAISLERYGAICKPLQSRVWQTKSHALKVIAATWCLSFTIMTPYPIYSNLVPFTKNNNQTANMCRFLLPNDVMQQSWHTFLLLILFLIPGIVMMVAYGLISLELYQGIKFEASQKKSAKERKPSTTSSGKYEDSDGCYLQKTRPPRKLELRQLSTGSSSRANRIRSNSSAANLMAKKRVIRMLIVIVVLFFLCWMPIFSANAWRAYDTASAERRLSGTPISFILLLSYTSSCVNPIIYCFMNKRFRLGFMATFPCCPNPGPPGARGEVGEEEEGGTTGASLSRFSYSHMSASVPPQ

[8] = molecular target: T3, Amine oxidase [flavin-containing] A (Homo sapiens, UniProt P21397); assay type: functional
T3 sequence (P21397 whole entry): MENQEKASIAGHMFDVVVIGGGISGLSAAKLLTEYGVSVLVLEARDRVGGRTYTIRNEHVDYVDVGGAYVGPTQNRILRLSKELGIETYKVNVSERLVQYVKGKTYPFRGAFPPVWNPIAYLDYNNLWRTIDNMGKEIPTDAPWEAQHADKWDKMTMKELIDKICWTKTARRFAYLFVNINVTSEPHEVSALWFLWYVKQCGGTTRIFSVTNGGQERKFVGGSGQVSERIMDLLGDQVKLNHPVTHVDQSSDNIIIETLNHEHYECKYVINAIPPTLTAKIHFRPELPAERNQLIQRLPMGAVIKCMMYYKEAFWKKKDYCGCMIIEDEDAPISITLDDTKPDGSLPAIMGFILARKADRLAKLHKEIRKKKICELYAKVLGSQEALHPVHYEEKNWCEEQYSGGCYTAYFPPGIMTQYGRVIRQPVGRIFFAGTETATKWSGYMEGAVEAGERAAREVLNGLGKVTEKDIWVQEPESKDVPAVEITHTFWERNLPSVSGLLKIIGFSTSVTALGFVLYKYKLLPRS

[9] = molecular target: 3',5'-cyclic-AMP phosphodiesterase 4D (Homo sapiens, UniProt Q08499); assay type: functional
[10] = molecular target: Glutamate receptor ionotropic, NMDA 1 (Rattus norvegicus, UniProt P35439)
[11] = molecular target: T4, Alpha-2A adrenergic receptor (Homo sapiens, UniProt P08913); assay type: functional, cell-based
T4 sequence (P08913 whole entry): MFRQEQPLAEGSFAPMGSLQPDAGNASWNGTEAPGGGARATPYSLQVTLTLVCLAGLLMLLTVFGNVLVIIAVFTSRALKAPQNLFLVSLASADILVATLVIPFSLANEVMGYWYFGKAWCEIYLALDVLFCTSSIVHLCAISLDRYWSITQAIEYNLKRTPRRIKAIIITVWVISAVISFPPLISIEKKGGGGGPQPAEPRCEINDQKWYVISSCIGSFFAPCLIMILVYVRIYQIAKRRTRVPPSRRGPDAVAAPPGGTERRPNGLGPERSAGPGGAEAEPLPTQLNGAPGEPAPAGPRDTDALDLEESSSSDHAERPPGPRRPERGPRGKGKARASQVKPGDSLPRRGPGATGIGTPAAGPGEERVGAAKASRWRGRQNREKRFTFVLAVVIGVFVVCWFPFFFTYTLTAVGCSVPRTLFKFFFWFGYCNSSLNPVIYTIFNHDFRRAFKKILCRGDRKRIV
Also: assay procedure not described here.

Chain of Vasopressin V1a receptor (P37288 whole entry): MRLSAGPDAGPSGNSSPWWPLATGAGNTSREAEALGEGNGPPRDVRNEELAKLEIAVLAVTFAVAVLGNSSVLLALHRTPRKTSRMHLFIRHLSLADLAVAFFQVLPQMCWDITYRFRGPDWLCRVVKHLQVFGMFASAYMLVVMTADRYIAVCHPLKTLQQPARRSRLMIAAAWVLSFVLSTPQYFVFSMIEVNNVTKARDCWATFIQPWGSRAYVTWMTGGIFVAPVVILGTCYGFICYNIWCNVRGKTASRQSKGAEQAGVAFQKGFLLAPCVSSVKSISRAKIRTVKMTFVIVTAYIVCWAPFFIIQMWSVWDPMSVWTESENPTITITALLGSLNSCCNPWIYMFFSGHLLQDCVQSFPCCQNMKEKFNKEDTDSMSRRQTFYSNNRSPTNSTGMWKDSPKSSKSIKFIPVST
Chain of Melanocortin receptor 3 (P41968 whole entry): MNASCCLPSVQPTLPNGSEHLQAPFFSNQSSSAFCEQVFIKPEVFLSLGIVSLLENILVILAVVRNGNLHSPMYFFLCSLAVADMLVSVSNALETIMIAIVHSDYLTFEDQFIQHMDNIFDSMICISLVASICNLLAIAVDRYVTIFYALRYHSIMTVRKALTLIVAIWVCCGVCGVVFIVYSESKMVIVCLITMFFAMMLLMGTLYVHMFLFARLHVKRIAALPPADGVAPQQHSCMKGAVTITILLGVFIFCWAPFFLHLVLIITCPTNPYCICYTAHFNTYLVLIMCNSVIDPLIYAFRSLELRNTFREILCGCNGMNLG
Chain of D(1A) dopamine receptor (P21728 whole entry): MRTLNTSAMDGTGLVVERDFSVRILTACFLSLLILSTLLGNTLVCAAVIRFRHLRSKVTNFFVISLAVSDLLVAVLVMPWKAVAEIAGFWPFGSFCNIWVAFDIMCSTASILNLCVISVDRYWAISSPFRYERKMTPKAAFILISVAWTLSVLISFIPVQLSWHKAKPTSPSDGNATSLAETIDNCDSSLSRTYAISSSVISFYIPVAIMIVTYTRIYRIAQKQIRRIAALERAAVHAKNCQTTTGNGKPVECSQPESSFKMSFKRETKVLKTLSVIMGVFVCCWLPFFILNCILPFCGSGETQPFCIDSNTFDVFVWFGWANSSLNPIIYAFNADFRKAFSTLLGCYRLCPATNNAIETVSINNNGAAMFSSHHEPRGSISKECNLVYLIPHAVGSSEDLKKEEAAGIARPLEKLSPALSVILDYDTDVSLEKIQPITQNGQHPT
Chain of Beta-1 adrenergic receptor (P08588 whole entry): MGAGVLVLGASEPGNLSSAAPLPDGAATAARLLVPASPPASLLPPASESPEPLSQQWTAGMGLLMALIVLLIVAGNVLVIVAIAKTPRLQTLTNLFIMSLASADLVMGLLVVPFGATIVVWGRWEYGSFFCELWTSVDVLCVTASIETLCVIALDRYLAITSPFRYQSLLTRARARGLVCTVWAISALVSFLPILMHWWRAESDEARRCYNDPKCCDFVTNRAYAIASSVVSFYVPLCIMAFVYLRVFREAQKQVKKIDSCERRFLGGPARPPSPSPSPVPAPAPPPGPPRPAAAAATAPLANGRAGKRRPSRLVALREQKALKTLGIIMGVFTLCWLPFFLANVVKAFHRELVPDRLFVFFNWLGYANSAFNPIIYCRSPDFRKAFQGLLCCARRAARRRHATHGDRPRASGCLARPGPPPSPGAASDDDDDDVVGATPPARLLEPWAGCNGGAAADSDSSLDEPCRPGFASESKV
Chain of Sodium-dependent dopamine transporter (Q01959 whole entry): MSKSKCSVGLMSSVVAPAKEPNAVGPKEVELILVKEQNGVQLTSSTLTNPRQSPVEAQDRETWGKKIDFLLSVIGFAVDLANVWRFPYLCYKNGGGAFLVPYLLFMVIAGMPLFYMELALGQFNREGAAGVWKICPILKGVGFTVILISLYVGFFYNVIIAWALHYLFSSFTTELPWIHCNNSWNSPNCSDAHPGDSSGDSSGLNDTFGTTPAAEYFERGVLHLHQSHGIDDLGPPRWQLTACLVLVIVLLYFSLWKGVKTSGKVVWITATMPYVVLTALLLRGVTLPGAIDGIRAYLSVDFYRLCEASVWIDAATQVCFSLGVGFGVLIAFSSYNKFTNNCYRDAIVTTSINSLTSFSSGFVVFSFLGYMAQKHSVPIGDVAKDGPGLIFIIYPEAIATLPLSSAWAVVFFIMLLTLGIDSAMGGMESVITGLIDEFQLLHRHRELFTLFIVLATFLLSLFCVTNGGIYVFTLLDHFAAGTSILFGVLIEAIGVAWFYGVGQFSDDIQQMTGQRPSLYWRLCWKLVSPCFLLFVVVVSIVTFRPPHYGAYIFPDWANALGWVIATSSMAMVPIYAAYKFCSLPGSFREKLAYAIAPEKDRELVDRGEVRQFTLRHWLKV
Chain of 3',5'-cyclic-AMP phosphodiesterase 4D (Q08499 whole entry): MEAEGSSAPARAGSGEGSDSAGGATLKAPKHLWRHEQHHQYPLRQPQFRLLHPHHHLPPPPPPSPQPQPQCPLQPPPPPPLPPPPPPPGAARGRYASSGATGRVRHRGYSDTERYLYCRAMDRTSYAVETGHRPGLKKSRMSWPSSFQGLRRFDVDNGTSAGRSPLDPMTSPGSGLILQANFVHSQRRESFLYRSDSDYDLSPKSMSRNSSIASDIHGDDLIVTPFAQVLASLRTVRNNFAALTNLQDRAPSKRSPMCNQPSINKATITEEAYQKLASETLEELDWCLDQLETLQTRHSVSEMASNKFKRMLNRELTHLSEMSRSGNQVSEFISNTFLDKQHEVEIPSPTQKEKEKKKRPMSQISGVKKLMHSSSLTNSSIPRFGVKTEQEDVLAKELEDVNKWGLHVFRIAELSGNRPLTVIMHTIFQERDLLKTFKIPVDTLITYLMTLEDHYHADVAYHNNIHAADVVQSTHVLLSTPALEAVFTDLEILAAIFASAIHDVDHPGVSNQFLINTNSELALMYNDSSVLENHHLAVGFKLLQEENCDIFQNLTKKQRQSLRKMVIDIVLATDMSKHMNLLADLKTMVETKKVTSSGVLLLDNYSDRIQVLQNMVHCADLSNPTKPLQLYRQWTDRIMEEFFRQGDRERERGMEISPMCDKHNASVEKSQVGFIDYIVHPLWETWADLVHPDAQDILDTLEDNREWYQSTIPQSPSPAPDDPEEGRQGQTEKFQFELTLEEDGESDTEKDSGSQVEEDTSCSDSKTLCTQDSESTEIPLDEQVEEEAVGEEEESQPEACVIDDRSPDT

C[C@@H](CN1CC(=O)NC(=O)C1)N1CC(=O)NC(=O)C1 [DEXRAZOXANE]
AC50 [1]: > 30 µM | AC50 [2]: > 30 µM

O=c1[nH]cc(F)c(=O)[nH]1 [FLUOROURACIL]
AC50 [3]: > 30 µM | AC50 [4]: > 30 µM | AC50 [1]: > 30 µM | AC50 [5]: > 30 µM | AC50 [6]: > 30 µM | AC50 [7]: > 30 µM

CCN(CCO)CCCC(C)Nc1ccnc2cc(Cl)ccc12 (stereo not drawn) [HYDROXYCHLOROQUINE]
AC50 [8]: > 10 µM | AC50 [4]: > 10 µM | AC50 [9]: > 30 µM | AC50 [5]: > 10 µM | AC50 [10]: > 10 µM | AC50 [7]: > 10 µM | AC50 [11]: > 10 µM

Cc1ccc(C(C)C)c(O)c1 [THYMOL]
AC50 [1]: > 30 µM | AC50 [2]: > 30 µM

OC[C@H]1NC[C@H](O)[C@@H](O)[C@H]1O
AC50 [1]: > 30 µM | AC50 [2]: > 30 µM

CNC1(c2ccccc2Cl)CCCCC1=O (stereo not drawn) [KETAMINE]
AC50 [1]: > 30 µM | AC50 [2]: > 30 µM

CN1CCN(C(c2ccccc2)c2ccc(Cl)cc2)CC1 (stereo not drawn) [CHLORCYCLIZINE]
AC50 [1]: > 30 µM | AC50 [2]: 6.89 µM

CN(C)CCC=C1c2ccccc2CCc2ccccc21 [AMITRIPTYLINE]
AC50 [3]: 22.7 µM | AC50 [8]: > 10 µM | AC50 [4]: 13.8 µM | AC50 [9]: > 30 µM | AC50 [1]: > 30 µM | AC50 [5]: 23 µM | AC50 [10]: > 10 µM | AC50 [6]: > 30 µM | AC50 [7]: > 30 µM | AC50 [11]: > 10 µM

O=P1(N(CCCl)CCCl)NCCCO1 (stereo not drawn) [CYCLOPHOSPHAMIDE ANHYDROUS]
AC50 [1]: > 30 µM | AC50 [2]: > 30 µM

O=NN(CCCl)C(=O)NC1CCCCC1 [LOMUSTINE]
AC50 [1]: > 30 µM | AC50 [2]: > 30 µM

NCCCCCC(=O)O [AMINOCAPROIC ACID]
AC50 [3]: > 10 µM | AC50 [8]: > 10 µM | AC50 [4]: 12.7 µM | AC50 [9]: > 30 µM | AC50 [5]: > 10 µM | AC50 [10]: > 10 µM | AC50 [7]: > 10 µM | AC50 [11]: > 10 µM

O=C(O)[C@H](O)[C@@H](O)[C@H](O)[C@H](O)CO [GLUCONIC ACID]
AC50 [1]: > 30 µM | AC50 [2]: > 30 µM

CC#CC(=O)N1CCC[C@H]1c1nc(-c2ccc(C(=O)Nc3ccccn3)cc2)c2c(N)nccn12 [ACALABRUTINIB]
AC50 [1]: > 30 µM | AC50 [2]: > 30 µM

CCCCCCCCCCCCCCCC(=O)OC[C@H](COP(=O)([O-])OCC[N+](C)(C)C)OC(=O)CCCCCCCCCCCCCCC [COLFOSCERIL PALMITATE]
AC50 [1]: > 30 µM | AC50 [2]: > 30 µM

CN1CCC(N(Cc2cccs2)c2ccccc2)CC1 [THENALIDINE]
AC50 [1]: > 30 µM | AC50 [2]: 11.6 µM

N=C(N)NCC1COc2ccccc2O1 (stereo not drawn) [GUANOXAN]
AC50 [1]: > 30 µM | AC50 [2]: 23.4 µM

NC(=O)C1(N2CCCCC2)CCN(CCCN2c3ccccc3CCc3ccccc32)CC1 [CARPIPRAMINE]
AC50 [1]: > 30 µM | AC50 [2]: 0.0928 µM

CC(C)NC[C@H](O)COc1ccc(O)cc1 [PRENALTEROL]
AC50 [1]: > 30 µM | AC50 [2]: > 30 µM

CCC1(c2ccccc2)C(=O)NCNC1=O [PRIMIDONE]
AC50 [3]: > 10 µM | AC50 [8]: > 10 µM | AC50 [4]: > 10 µM | AC50 [9]: > 30 µM | AC50 [5]: > 10 µM | AC50 [10]: > 10 µM | AC50 [7]: > 10 µM | AC50 [11]: > 10 µM

O=C(O)[C@@H](S)[C@@H](S)C(=O)O
AC50 [1]: > 30 µM | AC50 [2]: > 30 µM

COc1cccc2c1C(=O)c1c(O)c3c(c(O)c1C2=O)C[C@@](O)(C(=O)CO)C[C@@H]3O[C@H]1C[C@H](N)[C@H](O[C@@H]2CCCCO2)[C@H](C)O1 [PIRARUBICIN]
AC50 [1]: > 30 µM | AC50 [2]: > 30 µM

Cc1cc(C)cc(OCC2CNC(=O)O2)c1 (stereo not drawn) [METAXALONE]
AC50 [1]: > 30 µM | AC50 [2]: > 30 µM

N#Cc1ccnc(N2C(=O)CC[C@H]2C(=O)N(c2cncc(F)c2)[C@H](C(=O)NC2CC(F)(F)C2)c2ccccc2Cl)c1 [IVOSIDENIB]
AC50 [1]: > 30 µM | AC50 [2]: > 30 µM

NC(=O)C1(N2CCCCC2)CCN(CCCC(=O)c2ccc(F)cc2)CC1 [PIPAMPERONE]
AC50 [1]: > 30 µM | AC50 [2]: 0.258 µM

C[C@]12CC[C@@H]3c4ccc(OC(=O)N(CCCl)CCCl)cc4CC[C@H]3[C@@H]1CC[C@@H]2OP(=O)(O)O [ESTRAMUSTINE PHOSPHATE]
AC50 [1]: > 30 µM | AC50 [2]: 25.4 µM

O=C(O)COC(=O)Cc1ccccc1Nc1c(Cl)cccc1Cl [ACECLOFENAC]
AC50 [3]: > 10 µM | AC50 [8]: > 10 µM | AC50 [4]: > 30 µM | AC50 [9]: > 30 µM | AC50 [5]: > 30 µM | AC50 [10]: > 10 µM | AC50 [6]: > 30 µM | AC50 [7]: > 30 µM | AC50 [11]: > 10 µM

CC1=C(C/C=C(\C)CCC[C@H](C)CCC[C@H](C)CCCC(C)C)C(=O)c2ccccc2C1=O [PHYTONADIONE]
AC50 [1]: > 30 µM | AC50 [2]: > 30 µM

CCCCCCO[C@@H](C)c1cccc(-c2csc(NC(=O)c3cc(Cl)c(/C=C(\C)C(=O)O)c(Cl)c3)n2)c1OC [LUSUTROMBOPAG]
AC50 [1]: 9.34 µM | AC50 [2]: 1.54 µM

CC(C)Nc1cccnc1N1CCN(C(=O)c2cc3cc(NS(C)(=O)=O)ccc3[nH]2)CC1 [DELAVIRDINE]
AC50 [1]: > 30 µM | AC50 [2]: > 30 µM

Cc1cccc(C)c1NC(=O)c1cc(S(N)(=O)=O)c(Cl)cc1O [XIPAMIDE]
AC50 [1]: > 30 µM | AC50 [2]: > 30 µM

CCCCCCCC/C=C\CCCCCCCC(=O)O [OLEIC ACID]
AC50 [2]: > 30 µM

O=c1[nH]c2ccccc2n1CCN1CCN(c2cccc(C(F)(F)F)c2)CC1 [FLIBANSERIN]
AC50 [1]: > 30 µM | AC50 [2]: 2.43 µM

O=C(c1ccccc1)c1ccc2n1CCC2C(=O)O (stereo not drawn) [KETOROLAC]
AC50 [3]: > 10 µM | AC50 [8]: > 30 µM | AC50 [4]: > 10 µM | AC50 [9]: > 30 µM | AC50 [5]: > 10 µM | AC50 [10]: > 30 µM | AC50 [6]: > 10 µM | AC50 [7]: > 10 µM | AC50 [11]: > 30 µM

CC(C)NCC(O)COc1ccc(CC(N)=O)cc1 (stereo not drawn) [ATENOLOL]
AC50 [8]: > 30 µM | AC50 [9]: > 30 µM | AC50 [5]: > 30 µM | AC50 [10]: > 30 µM | AC50 [6]: > 30 µM | AC50 [7]: > 30 µM | AC50 [11]: > 30 µM

COC(=O)CCc1ccc(OCC(O)CNC(C)C)cc1 (stereo not drawn) [ESMOLOL]
AC50 [3]: 0.856 µM | AC50 [8]: > 30 µM | AC50 [4]: > 30 µM | AC50 [9]: > 30 µM | AC50 [5]: > 30 µM | AC50 [10]: > 30 µM | AC50 [7]: > 30 µM | AC50 [11]: > 30 µM

Reference: ChEMBL document CHEMBL5291721, “A preclinical secondary pharmacology resource illuminates target-adverse drug reaction associations of marketed drugs” (Nat Commun, 2023)
